Measurements from PMC4570246 (Cancer letters, 2015).

Biological target: β-tubulin (Homo sapiens, UniProt P07437)
Experiment: SPR
Type: binding

Sequence of β-tubulin (P07437 whole entry): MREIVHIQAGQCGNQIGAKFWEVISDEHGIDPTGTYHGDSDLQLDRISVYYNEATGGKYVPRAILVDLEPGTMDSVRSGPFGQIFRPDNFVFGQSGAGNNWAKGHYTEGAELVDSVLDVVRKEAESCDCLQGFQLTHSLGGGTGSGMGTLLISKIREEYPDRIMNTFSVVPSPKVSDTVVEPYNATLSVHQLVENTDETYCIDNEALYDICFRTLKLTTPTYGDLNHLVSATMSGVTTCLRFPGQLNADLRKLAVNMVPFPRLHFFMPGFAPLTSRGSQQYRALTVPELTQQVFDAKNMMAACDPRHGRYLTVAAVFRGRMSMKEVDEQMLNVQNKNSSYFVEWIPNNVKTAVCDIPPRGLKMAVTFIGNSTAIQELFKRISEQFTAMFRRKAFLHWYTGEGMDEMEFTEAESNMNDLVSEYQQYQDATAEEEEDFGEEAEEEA

Structure (SMILES)	Kd [nM]
O=c1c(O)c(-c2ccc(O)c(O)c2)oc2cc(O)ccc12 [fisetin]	1590
CC(=O)O[C@H]1C(=O)[C@@]2(C)[C@H]([C@H](OC(=O)c3ccccc3)[C@]3(O)C[C@H](OC(=O)[C@H](O)[C@@H](NC(=O)c4ccccc4)c4ccccc4)C(C)=C1C3(C)C)[C@]1(OC(C)=O)CO[C@@H]1C[C@@H]2O [paclitaxel]	2260
